From US7868047B2, “Anti-inflammatory and psoriasis treatment and protein kinase inhibition by hydroxy stilbenes and novel stilbene derivatives and analogues” (Welichem Biotech Inc., priority 1999, dated 2011)
Values joined by “and” are separate entries in the source; they are usually repeats but may differ in a detail not shown here. Equal entries are not always repeated. Where two headings read alike, the source gives them in different places.

Assays:
[1] = tested on: TPA-induced ear edema; experiment: TPA-induced ear edema model; type: in vivo, mouse; settings: TPA 0.01%, ear thickness 6 hours after TPA
Experimental: Experiment: Three representative compounds, 5-(2-phenylethenyl)-2-1-propyl-1,3-benzenediol, as previously reported, a closely related stilbene derivative (WO 0142231) and compound 39B, a novel compound of the current invention, were assayed against the edema on female mice (Balb/c) aged 10-12 weeks, using 0.01% Calcitriol (a commercial standard) as a positive control. Phorbol-12-myristate-13-acetate (TPA) was used as the edema inducer. TPA and the test compounds were all dissolved in 100% ethanol and 20 μl applied on the right ear of the mouse with six mice per group. The TPA concentration used was 0.01% (w/v). Ear thickness was measured 6 hours after TPA treatment to determine if edema was decreased. In each experiment replicated groups of TPA treated mice were treated with either 5-(2-phenylethenyl)-2-1-propyl-1,3-benzenediol, Calcitriol, compound 39B or only ethanol, and the level of inhibition was obtained by measuring the thickness of the ear and expressing the difference in thickness of the treated ear from that of the ethanol treated ear, as a percentage.

[2] = tested on: IFN-γ; experiment: IFN-γ production by PHA-stimulated human PBMC (ELISA); type: cell-based; settings: for IC50: PHA-stimulated human PBMC, supernatant after 48 hours, ELISA
Experimental: (§1) (a). Effect on proliferation and IFN-γ production of human peripheral blood mononuclear cells (PBMC) stimulated by phytochemagglutinin (PHA).
(§2) Experiment: PBMC were cultured with PHA and cultured with titrated concentrations of compounds or solvent, or media alone using standard cell culture techniques. The MTT assay was performed after 48 hours of culture. Supernatants were collected after 48 hours of culture and levels of IFN-γ were assayed by ELISA.

[3] = tested on: Human keratinocytes; experiment: Human keratinocyte proliferation (MTT); type: cell-based; settings: for IC50: Homo sapiens, Keratinocyte, in the presence of IFN-γ, MTT after 48 hours
Experimental: Human keratinocytes were cultured in the presence of IFN-γ and titrated concentrations of drug or the vehicle. The MTT assay was performed after 48 hours of culture.

[4] = tested on: human PBMC; experiment: Proliferation of PHA-stimulated human PBMC (MTT); type: cell-based; settings: for IC50: MTT after 48 hours
Experimental: as §1, §2

[5] = tested on: TNF-α; experiment: Endotoxemia mouse model, serum TNF-α after LPS; type: in vivo; settings: for TNF-α levels in mice blood induced by LPS: P<0.05; for TNF-α: serum 150 min after LPS 40 mg/kg IP, compounds 25 mg/kg then 3 x 12.5 mg/kg IP (dexamethasone 0.4 then 3 x 0.2 mg/kg)
From the text: The in vivo endotoxemia model used in these studies represents a mouse showing the early inflammatory response. Such severe infection can be caused by Gram negative bacteria may lead to the development of septic shock. This toxicity is caused by the lipopolysaccharide (LPS) component of the bacterial cell wall, and injection of LPS into mice can mimic the physiological response typical of the septic shock syndrome. LPS-mediated toxicity is due to the release of cytokines such as TNF-α, IL-1 and IFN-γ by activated macrophages, and the degree of toxicity can be measured by the level of these cytokines in the blood.
Experiment: Test compounds were dissolved and formulated in 50% PEG-400 in water. Female Balb/c mice (˜20 g) were first injected separately intraperitoneally (IP) with 25 mg/kg of each test compound, then challenged by injection with 40 mg/kg lipopolysaccharide (LPS) (IP) 30 minutes later. One drug injection with 12.5 mg/kg of test compound was done at the same time as (LPS challenge and two subsequent sequential injections at 30 minutes intervals. Positive control of dexamethasone was administered in a similar manner starting at 0.4 mg/kg and subsequently 0.2 mg/kg for three additional injections. Mice were sacrificed and blood collected by cardiac puncture 150 minutes after LPS challenge. The serum TNF-α levels were determined by ELISA. Each test group was comprised of six mice. Group of mice injected with the vehicle alone was used as negative control.

[6] = tested on: VEGF; experiment: VEGF protein expression of keratinocytes induced by rhTGF-α (ELISA); type: cell-based, human; settings: for VEGF: supernatant, rhTGF-α 100 ng/ml, 24 h
Experimental: Experiment: Compound 39B was dissolved in DMSO, diluted with keratinocyte-serum-free medium (KC-SFM) to 10^3 μg/ml, further diluted with the culture medium and tested at the following concentrations: 10, 1, 0.1 and 0.01 μg/ml. Prime cultures of keratinocytes were obtained from a commercial source and maintained with KC-SFM at a cell density of 10^6/ml. In the test, cells were cultured in 24-well plates and incubated at 37° C. in 5% CO2 first for 4 h, and then treated with rhTGF-α (final concentration 100 ng/ml) and the test compound at different concentrations (0.01-10 μg/ml). Medium without test compound was the negative control. The culture supernatant from each well was separately collected after an additional 24 h incubation and centrifuged at 2000 rpm for 5 minutes before measuring the VEGF concentration. VEGF concentration in the supernatant in each well was calculated based on measurements taken using an ELISA kit, according to the manufacturer's instructions.

[7] = tested on: human white blood cells (WBC); experiment: Migration of human white blood cells induced by leukotriene B4 (agarose plate); type: cell-based; settings: for % Migration: towards LTB4, 5 h
Experimental: Experiment: WBC collected from donors was mixed with equal volume of 3% dextran (in 0.15M NaCl). The red blood cells were sedimented (45 minutes, room temperature) and removed. Any remaining red blood cells in the plasma were removed by adding 150 mM of Tris-NH4Cl. The leukocyte-rich plasma was washed twice in Hanks balanced salts solution containing 20 mM HEPES. The WBC was then transferred to RPMI-1640 medium and adjusted to a density of 5×10^7 cells/ml. An agarose plate assay system (Nelson et al. 1978) was used to measure the WBC migration. Briefly, a 0.8% agarose solution was prepared with complete RPMI-1640 cell culture medium. About 3.5 ml of this agarose solution was transferred to a glass slide before it solidified. Wells were made on the slide in a 3×6 array fashion (02 mm, inter-well distance 3 mm) once the agarose had solidified. LTB4 was dissolved in anhydrous ethanol to 104 ng/ml and further diluted with the RPMI-1640 medium to 10 ng/ml for the test. Compound 39B was dissolved in DMSO, diluted with RPMI-1640 to 10^3 μg/ml and tested at the following concentrations: 100, 10, 1, 0.1 and 0.01 μg/ml. Ten microlitres of cell suspension with different concentrations of compound 39B was added to each well of the center row of the three rows of wells. The same volume of LTB4 in RPMI-1640 medium or the medium alone was added to wells in the other rows and served as controls. After 5 h incubation (5% CO2, 37° C.) the test slides were fixed with 100% methanol (30 min) and dried at 4° C. (overnight). The slides were then examined microscopically. The migration index was defined as the average distances that cells migrated towards the positive LTB4 well divided by that of spontaneous migration. The percentage migration was compared between treatment and the non-drug control. The dose-effect relationship was determined by plotting the percentage chemotaxis vs concentration for IC50 values.

[8] = tested on: DSS-induced IBD; experiment: DSS (2%) IBD mouse model, preventive experiment; type: in vivo; settings: 500 mg/kg/day oral with 2% DSS, day 7
Experimental: To assess the in vivo efficacy for preventive and therapeutic activities of these compounds on IBD, two experiments were designed and tested using the dextran sulfate sodium (DSS) experimental mouse model for human IBD. For the preventive experiment, compounds 9A and 39B were simultaneously administrated orally with 2% DSS at the dose of 500 mg/kg/day. Vehicle alone and glucocorticoid (dexamethasone 20 mg/kg/day) were used as controls. At day 7, mice were sacrificed, examined for stool appearance, diarrhea and colon macroscopic damage including ulceration, inflammation and adhesion. Colon samples were also taken and fixed in 10% formalin for histological assessment of architecture, ulceration, inflammation and serosal damage.

[9] = tested on: acute colon inflammation induced by 5% DSS; experiment: DSS (5%) acute colon inflammation mouse model, therapeutic experiment; type: in vivo
From the text: To assess the in vivo efficacy for preventive and therapeutic activities of these compounds on IBD, two experiments were designed and tested using the dextran sulfate sodium (DSS) experimental mouse model for human IBD.
For the therapeutic experiment a further experiment was done to test different doses of 9A on severe, acute intestinal inflammation in mice induced by a high dose of DSS (5%). In this experiment, drug treatment started from day 3 post DSS induction when disease symptom was established. 9A (200 mg/kg or 100 mg/kg) was administered through oral […] once daily and a commercial drug, sulfasalazine (SASP, 100 mg/kg/day) was used as positive control. Experiment was terminated at day 7 and the efficacy was assessed.

[10] = Homo sapiens, PBMC, PHA-stimulated, read-out: IC50 against human PBMC proliferation
[11] = Homo sapiens, PBMC, PHA-stimulated, read-out: IC50 against human PBMC proliferation (unit inferred)
[12] = PHA-stimulated, read-out: IC50 against human PBMC proliferation

## C=C1/C(=C\C=C2/CCC[C@]3(C)[C@@H]([C@H](C)CCCC(C)(C)O)CC[C@@H]23)C[C@@H](O)C[C@@H]1O [Calcitriol, reference compound]
[1]; 0.01% single topical
  % edema inhibition: 31% and 31.2%

## COc1cc(/C=C/c2ccccc2)cc(OC)c1C(C)C [Compound 8A, 3,5-Dimethoxy-4-isopropyl-trans-stilbene]
other
  melting point: 64 to 66 °C

## CCCc1c(O)cc(C=Cc2ccc(O)cc2)cc1O [Compound 13B, 5-[2-(4-Hydroxyphenyl)ethenyl]-2-1-propyl-1,3-benzenediol]
[2]
  potency in inhibiting IFN-γ production relative to resveratrol: more than 15 times
  IC50: 2.55 µM
[3]
  potency on keratinocyte proliferation relative to resveratrol: more than 10 times
  IC50: 4.3 µM
[4]
  potency in inhibiting PBMC proliferation relative to resveratrol: 20 times
[4]; [10]
  IC50: 2.97 µM
[4]; [11]
  IC50: 2.97 µM

## COc1cc(/C=C/c2ccccc2)cc(OC)c1Br [Compound 14A, 3,5-Dimethoxy-4-bromo-trans-stilbene]
other
  melting point: 149 to 152 °C

## CCc1c(OC)cc(/C=C/c2ccccc2)cc1OC [Compound 15A-a, 3,5-Dimethoxy-4-ethyl-trans-stilbene]
other
  melting point: 70 to 73 °C

## CCCCCCCCCCCCCCc1c(OC)cc(/C=C/c2ccccc2)cc1OC [Compound 15A-b, 3,5-Dimethoxy-4-myristyl-trans-stilbene]
other
  melting point: 68 to 70 °C

## CCc1c(O)cc(/C=C/c2ccccc2)cc1O [Compound 16A-a, 3,5-Dihydroxy-4-ethyl-trans-stilbene]
other
  melting point: 143 to 146 °C

## CCCCCCCCCCCCCCc1c(O)cc(/C=C/c2ccccc2)cc1O [Compound 16A-b, 3,5-Dihydroxy-4-myristyl-trans-stilbene]
other
  melting point: 125 to 128 °C

## CCCc1c(O)cc(C=Cc2ccccc2F)cc1O [Compound 37B, 5-[2-(2-Fluorophenyl)ethenyl]-2-1-propyl-1,3-benzenediol]
[2]
  IC50: 3.8 µM
[5]
  TNF-α levels in mice blood induced by LPS: decreased significantly
  TNF-α: 638.9 ± 273.0 pg/mL
[4]; [10]
  IC50: 5.62 µM

## CC(C)c1c(O)cc(C=Cc2cccc(F)c2)cc1O [Compound 38B, 5-[2-(3-Fluorophenyl)ethenyl]-2-1-propylphenyl-1,3-diol]
[2]
  IC50: 4.29 µM
[4]; [12]
  IC50: 9.91 µM

## CC(C)c1c(O)cc(C=Cc2ccc(F)cc2)cc1O [Compound 39B]
[6]; 1.6 μM
  VEGF: 34.4 ± 2.0 pg/mL
[6]; 8 μM
  VEGF: 33.6 ± 1.8 pg/mL
[6]; 40 μM, 24-h treatment
  decrease of VEGF protein concentration: 100%
[6]; 40 μM
  VEGF: 0 ± 0 pg/mL
[7]
  inhibition of migration of WBC towards LTB4: dose-dependent manner
[7]; 0.32 μM
  % Migration: 88.46 ± 18.6%
[7]; 1.6 μM
  % Migration: 83.85 ± 15.9%
[7]; 8 μM
  % Migration: 58.46 ± 4.3%
[7]; 40 μM
  % Migration: 13.07 ± 5.8%
[8]
  macroscopic and microscopic diseases scores: significantly decreased
[2]
  IC50: 4.16 µM
[5]
  TNF-α levels in mice blood induced by LPS: decreased significantly
  TNF-α: 601.6 ± 211.9 pg/mL
[4]; [12]
  IC50: 7.36 µM
[1]; 0.3% single topical
  % edema inhibition: 85% and 85.2%

## C[C@@H]1C[C@H]2[C@@H]3CCC4=CC(=O)C=C[C@]4(C)[C@@]3(F)[C@@H](O)C[C@]2(C)[C@@]1(O)C(=O)CO [Dexamethasone, dexamethasone, reference compound]
[5]
  TNF-α: 281.3 ± 67.2 pg/mL

## Oc1ccc(C=Cc2cc(O)cc(O)c2)cc1 [Resveratrol, resveratrol, reference compound]
[2]
  IC50: 39.2 µM
[3]
  IC50: > 50 µM
[4]; [10]
  IC50: > 50 µM
[4]; [11]
  IC50: > 50 µM
[4]; PHA-stimulated, 50 the highest concentration tested
  IC50 against human PBMC proliferation: > 50 µM

## O=C(O)c1cc(/N=N/c2ccc(S(=O)(=O)Nc3ccccn3)cc2)ccc1O [SASP, sulfasalazine, reference compound]
[9]; 100 mg/kg oral daily, day seven, mean ± SEM, n = 9, 1 = normal, 2 = bloody stool, 4 = gross bleeding
  Bleeding score: 3.6 ± 0.24
[9]; 100 mg/kg oral daily, day seven, mean ± SEM, n = 9, 1 = normal, 2 = loose stools, 4 = diarrhea
  Diarrheal score: 2.8 ± 0.49
[9]; 5% DSS, treatment from day 3
  survival rate vs control treatment: significantly higher survival rate
